In publication PMC5301048, “Selection and early clinical evaluation of the brain‐penetrant 11β‐hydroxysteroid dehydrogenase type 1 (11β‐HSD1) inhibitor UE2343 (Xanamem™)” (British Journal of Pharmacology, 2017):
Values after ≈ are worked out from the molar mass of the structure shown.

Legend:
[1] = Pharmacokinetics in dog (i.v. and p.o.); assay type: in vivo; details: for bioavailability: p.o. 5 mg·kg^−1 vs i.v. 1 mg·kg^−1, mean ± SD
Experimental: Pharmacokinetic studies were carried out at Charles River, UK. For both i.v. and p.o. administration, compounds were prepared in 0.9% saline containing 2% DMSO (v^.v^‐1) and 38% PEG400 (v^.v^‐1). Solutions were passed through 0.22 μm filters prior to administration. Three Beagle dogs each received a single i.v. injection of compound 4 at a dose level of 1 mg·kg^−1. Following a washout period of 1 week, each animal received a single p.o. dose of compound 4 at a dose level of 5 mg·kg^−1.
After a washout period of 6 weeks, the same three dogs each received a single i.v. injection of compound 7 at a dose level of 1 mg·kg^−1. Following a washout period of 1 week, each animal received a single p.o. dose of compound 7 at a dose level of 5 mg·kg^−1.
Plasma samples were obtained up to 24 h post dose administration, and the concentration of each test item in plasma was determined using LC–MS/MS. Pharmacokinetic parameters were derived by non‐compartmental analysis using WinNonLin pharmacokinetic software.

[2] = Microsomal stability, rat liver microsomes; assay type: in vitro ADME; details: mean ± SD [n]
Experimental: (§1) Microsomal stability was determined using pooled human, rat or dog liver microsomes according to the method described in WO2011135276 (Webster et al., 2011a).

[3] = Microsomal stability, dog liver microsomes; assay type: in vitro ADME; details: mean ± SD [n]
Experimental: as §1

CYP3A4 = target: T1, CYP3A4 (Homo sapiens, UniProt P08684); test: Cytochrome P450 inhibition, CYP3A4; assay type: in vitro ADME; details: human liver microsomes; read-out: CYP450 isoform 3A4 IC50
T1 construct: tissue Cyprotex Discovery Limited; host or cells: human liver microsomes
Experimental: (§2) Testing was performed by Cyprotex Discovery Limited, Cheshire, UK. Six test compound concentrations (0.4, 1, 4, 10, 40 and 100 μM; final DMSO concentration 0.25%, final microsome concentration 0.25 mg·mL^−1) were either pre‐incubated for 30 min in the absence and presence of NADPH or underwent a 0 min pre‐incubation with human liver microsomes. At the end of the pre‐incubation period, the probe substrate for each cytochrome P450 (CYP450) isoform (30 μM) and NADPH (1 mM) were then added (final DMSO concentration 0.3%), and the samples were incubated for 5 min at 37°C. Probe substrates were as follows: 1A2 – phenacetin, 2C9 – diclofenac, 2C19 – mephenytoin, 2D6 – dextromethorphan, 3A4 – midazolam and testosterone. Samples were subjected to LC–MS/MS analysis to determine metabolite concentrations. A decrease in the formation of the metabolite compared with vehicle control was used to calculate an IC50 value (test compound concentration which produces 50% inhibition) for each experimental condition.

CYP450 enzymes = test: Time-dependent cytochrome P450 inhibition; assay type: in vitro ADME, human; details: 30 min pre-incubation ± NADPH; in words
Experimental: as §2

[4] = Aqueous solubility at pH 7.4; assay type: physicochemical; details: aqueous phosphate buffer, thermodynamic from solid, pH 7.4, room temperature, mean ± SD [n]
Experimental: The concentration was quantified by HPLC with reference to a standard calibration curve. The solubility was calculated using the peak areas determined by integration of the peak found at the same retention time as the principal peak in the standard injection.

[5] = Plasma protein binding, dog plasma; assay type: in vitro ADME; details: mean ± SD [n]
[6] = Plasma protein binding, human plasma; assay type: in vitro ADME
Experimental: Plasma protein binding was determined using pooled human plasma according to the method described in WO2011135276 (Webster et al., 2011a).

CYP2D6 = target: T2, CYP2D6 (Homo sapiens, UniProt P10635); test: Cytochrome P450 inhibition, CYP2D6; assay type: in vitro ADME; details: human liver microsomes; read-out: CYP450 isoform 2D6 IC50
T2 construct: tissue Cyprotex Discovery Limited; host or cells: human liver microsomes
Experimental: as §2

hERG K+ channel = target: T3, hERG K+ channel (Homo sapiens, UniProt Q12809); test: hERG inhibition, IonWorks Quattro patch clamp; assay type: cell-based
T3 construct: Chinese hamster lung cell line stably expressing the full length hERG channel; host or cells: Chinese hamster lung cell line
Experimental: Testing was performed by Essen Instruments, Hertfordshire, UK. Compounds were tested for inhibition of the human ether a go‐go related gene (hERG) K+ channel in a Chinese hamster lung cell line stably expressing the full length hERG channel. Single cell ionic currents were measured in the perforated patch clamp configuration at room temperature using an IonWorks Quattro instrument. Eight‐point concentration–response curves were generated using threefold serial dilutions from the maximum final assay concentration. IC50 values were obtained from a four‐parameter logistic fit of the % inhibition data.

[7] = Microsomal stability, human liver microsomes; assay type: in vitro ADME; details: mean ± SD [n]
Experimental: as §1

T3 sequence (Q12809 whole entry): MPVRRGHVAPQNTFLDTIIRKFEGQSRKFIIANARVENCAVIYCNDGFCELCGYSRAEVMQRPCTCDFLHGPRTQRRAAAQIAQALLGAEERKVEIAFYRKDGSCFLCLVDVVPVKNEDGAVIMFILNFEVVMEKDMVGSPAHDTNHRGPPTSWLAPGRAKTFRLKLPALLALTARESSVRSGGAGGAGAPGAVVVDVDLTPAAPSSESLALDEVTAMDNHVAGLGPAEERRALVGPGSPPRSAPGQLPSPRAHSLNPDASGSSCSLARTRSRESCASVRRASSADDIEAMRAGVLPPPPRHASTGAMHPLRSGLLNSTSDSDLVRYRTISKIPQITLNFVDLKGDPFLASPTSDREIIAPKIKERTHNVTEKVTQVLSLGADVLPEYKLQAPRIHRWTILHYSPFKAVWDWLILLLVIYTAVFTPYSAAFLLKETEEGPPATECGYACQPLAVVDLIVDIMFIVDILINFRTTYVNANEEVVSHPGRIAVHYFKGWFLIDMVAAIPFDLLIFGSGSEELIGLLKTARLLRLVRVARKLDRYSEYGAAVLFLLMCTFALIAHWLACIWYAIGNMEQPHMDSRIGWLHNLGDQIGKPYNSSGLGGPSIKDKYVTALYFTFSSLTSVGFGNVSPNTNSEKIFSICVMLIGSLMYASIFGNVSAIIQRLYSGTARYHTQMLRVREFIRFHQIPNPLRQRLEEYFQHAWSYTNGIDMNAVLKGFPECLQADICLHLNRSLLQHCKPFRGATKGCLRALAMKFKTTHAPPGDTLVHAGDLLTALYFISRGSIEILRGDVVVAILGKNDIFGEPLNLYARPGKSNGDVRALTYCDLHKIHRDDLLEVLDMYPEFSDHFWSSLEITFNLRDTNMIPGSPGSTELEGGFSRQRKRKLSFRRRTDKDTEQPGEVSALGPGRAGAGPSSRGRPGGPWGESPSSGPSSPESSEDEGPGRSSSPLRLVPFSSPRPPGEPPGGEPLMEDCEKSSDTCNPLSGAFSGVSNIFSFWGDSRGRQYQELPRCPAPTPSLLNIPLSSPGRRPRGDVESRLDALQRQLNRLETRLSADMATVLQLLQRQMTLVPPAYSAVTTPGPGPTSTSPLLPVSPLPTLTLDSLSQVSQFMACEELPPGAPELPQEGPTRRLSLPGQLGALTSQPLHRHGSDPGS
T2 sequence (P10635 whole entry, canonical isoform): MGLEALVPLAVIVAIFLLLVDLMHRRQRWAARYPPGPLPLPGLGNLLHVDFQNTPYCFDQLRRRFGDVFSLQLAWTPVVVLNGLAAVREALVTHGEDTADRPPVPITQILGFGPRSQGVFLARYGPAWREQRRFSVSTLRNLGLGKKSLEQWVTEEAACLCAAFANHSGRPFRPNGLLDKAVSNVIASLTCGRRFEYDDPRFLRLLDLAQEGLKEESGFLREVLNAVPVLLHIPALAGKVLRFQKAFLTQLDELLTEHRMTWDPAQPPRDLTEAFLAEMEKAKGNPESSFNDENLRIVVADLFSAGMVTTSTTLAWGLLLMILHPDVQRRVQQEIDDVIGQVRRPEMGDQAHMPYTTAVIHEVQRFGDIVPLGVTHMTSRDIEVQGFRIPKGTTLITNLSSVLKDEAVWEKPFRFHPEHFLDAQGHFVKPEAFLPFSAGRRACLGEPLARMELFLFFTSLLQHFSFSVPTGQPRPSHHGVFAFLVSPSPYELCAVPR
T1 sequence (P08684 whole entry, canonical isoform): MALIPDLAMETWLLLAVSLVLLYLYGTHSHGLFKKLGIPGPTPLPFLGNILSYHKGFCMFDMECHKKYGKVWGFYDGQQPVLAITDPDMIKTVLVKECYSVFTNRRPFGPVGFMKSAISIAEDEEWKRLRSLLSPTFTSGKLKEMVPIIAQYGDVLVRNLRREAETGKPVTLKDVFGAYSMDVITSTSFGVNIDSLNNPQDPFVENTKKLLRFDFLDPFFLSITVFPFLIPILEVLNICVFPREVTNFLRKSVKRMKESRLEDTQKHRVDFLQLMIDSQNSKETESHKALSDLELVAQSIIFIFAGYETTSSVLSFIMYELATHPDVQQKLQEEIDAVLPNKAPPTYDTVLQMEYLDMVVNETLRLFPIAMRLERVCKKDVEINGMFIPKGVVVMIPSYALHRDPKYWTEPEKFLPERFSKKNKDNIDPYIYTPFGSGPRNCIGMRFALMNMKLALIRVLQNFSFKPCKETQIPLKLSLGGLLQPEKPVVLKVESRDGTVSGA

clearance ([1]; Beagle, plasma, iv, i.v. 1 mg·kg^−1, mean ± SD): 4.68 ± 1.12 mL/min/kg
half-life ([1]; Beagle, plasma, mean ± SD): 2.79 ± 0.84 h
Tmax ([1]; Beagle, plasma, oral, 5 mg·kg^−1): 1 h
bioavailability ([1]; Beagle, plasma, oral): > 100%
Cmax ([1]; Beagle, plasma, po, p.o. 5 mg·kg^−1, mean ± SD): 4590 ± 546 ng/mL
bioavailability ([1]; Beagle, plasma, po): 170 ± 40%
oral exposure relative to compound 7 ([1]; p.o., in words): greater than threefold higher
Liver microsomal stability (% parent at 30 min), rat [2]: 74 ± 1 [3] % parent at 30 min
Liver microsomal stability (% parent at 30 min), dog [3]: 92 ± 5 [3] % parent at 30 min
IC50 (CYP3A4): > 50 µM
time‐dependent inhibition of CYP450 enzymes (CYP450 enzymes): No time‐dependent inhibition
solubility [4]: 200 µg/mL (≈ 524 µM)
Plasma protein binding (% unbound), dog [5]: 44 ± 0 [1] % unbound
Plasma protein binding (% unbound), human ([6]; human plasma, mean ± SD [n]): 30 ± 2 [2] % unbound
fraction unbound ([6]; human, pooled human plasma, read-out: bound to plasma proteins (converted)): 0.3
IC50 (CYP2D6): > 50 µM
Liver microsomal stability (% parent at 30 min), human [7]: 99 ± 1 [3] % parent at 30 min
SMILES: O=C(c1csc(-c2cn[nH]c2)c1)N1C2CCC1CC(O)(c1ncccn1)C2 (stereo not shown) [compound 4]
IC50 (hERG K+ channel; Chinese hamster lung cells expressing hERG, mean ± SD [n]): > 30 µM
inhibition of the hERG channel (hERG K+ channel; up to a concentration of 30 μM, in words): only marginal inhibition
